In brackets after ≈: the same amount, converted by molar mass.
Columns and labels:
[1] = system: Plasmodium falciparum; assay: Ratio of IC90 for Plasmodium falciparum subclone 3A12 containing 2 copy number of pfmdr1-containing amplicon on chromosome 5 to IC90 for wild type Plasmodium falciparum W2; type: functional
[2] = system: Plasmodium falciparum; assay: Ratio of IC90 for Plasmodium falciparum subclone 3A7 containing 4 copy number of pfmdr1-containing amplicon on chromosome 5 to IC90 for wild type Plasmodium falciparum W2; type: functional
[3] = system: Plasmodium falciparum; assay: Ratio of IC50 for Plasmodium falciparum clone W2AL80 containing 3 copy number of pfmdr1-containing amplicon on chromosome 5 to IC50 for wild type Plasmodium falciparum W2; type: functional
[4] = system: Plasmodium falciparum; assay: Ratio of IC90 for Plasmodium falciparum subclone 3A26 containing 3 copy number of pfmdr1-containing amplicon on chromosome 5 to IC90 for wild type Plasmodium falciparum W2; type: functional
[5] = system: Plasmodium falciparum; assay: Ratio of IC90 for Plasmodium falciparum subclone 3A17 containing 2 copy number of pfmdr1-containing amplicon on chromosome 5 to IC90 for wild type Plasmodium falciparum W2; type: functional
[6] = system: Plasmodium falciparum; assay: Antimicrobial activity against Plasmodium falciparum subclone 3A26 containing 3 copy number of pfmdr1-containing amplicon on chromosome 5 assessed as growth inhibition by [3H]hypoxanthine incorporation assay; type: functional, organism-based
[7] = system: Plasmodium falciparum; assay: Ratio of IC50 for Plasmodium falciparum subclone 3A8 containing 3 copy number of pfmdr1-containing amplicon on chromosome 5 to IC50 for wild type Plasmodium falciparum W2; type: functional
[8] = system: Plasmodium falciparum; assay: Ratio of IC90 for Plasmodium falciparum subclone 3A8 containing 3 copy number of pfmdr1-containing amplicon on chromosome 5 to IC90 for wild type Plasmodium falciparum W2; type: functional
[9] = system: Plasmodium falciparum; assay: Antimicrobial activity against Plasmodium falciparum subclone 3C1 containing 3 copy number of pfmdr1-containing amplicon on chromosome 5 assessed as growth inhibition by [3H]hypoxanthine incorporation assay; type: functional, organism-based
[10] = system: Plasmodium falciparum; assay: Ratio of IC50 for Plasmodium falciparum subclone 3C10 containing 2 copy number of pfmdr1-containing amplicon on chromosome 5 to IC50 for wild type Plasmodium falciparum W2; type: functional
[11] = system: Plasmodium falciparum; assay: Ratio of IC90 for Plasmodium falciparum subclone 3A1 containing 1 copy number of pfmdr1-containing amplicon on chromosome 5 to IC90 for wild type Plasmodium falciparum W2; type: functional
[12] = system: Plasmodium falciparum; assay: Antimicrobial activity against Plasmodium falciparum subclone 3A17 containing 2 copy number of pfmdr1-containing amplicon on chromosome 5 assessed as growth inhibition by [3H]hypoxanthine incorporation assay; type: functional, organism-based
[13] = system: Plasmodium falciparum; assay: Antimicrobial activity against Plasmodium falciparum subclone 3A12 containing 2 copy number of pfmdr1-containing amplicon on chromosome 5 assessed as growth inhibition by [3H]hypoxanthine incorporation assay; type: functional, organism-based
[14] = system: Plasmodium falciparum; assay: Antimicrobial activity against compound-sensitive Plasmodium falciparum clone W2 assessed as growth inhibition by [3H]hypoxanthine incorporation assay; type: functional, organism-based
[15] = system: Plasmodium falciparum; assay: Ratio of IC90 for Plasmodium falciparum subclone 3C10 containing 2 copy number of pfmdr1-containing amplicon on chromosome 5 to IC90 for wild type Plasmodium falciparum W2; type: functional
[16] = system: Plasmodium falciparum; assay: Antimicrobial activity against Plasmodium falciparum subclone 3A3 containing 1 copy number of pfmdr1-containing amplicon on chromosome 5 assessed as growth inhibition by [3H]hypoxanthine incorporation assay; type: functional, organism-based
[17] = system: Plasmodium falciparum; assay: Antimicrobial activity against Plasmodium falciparum subclone 3A1 containing 1 copy number of pfmdr1-containing amplicon on chromosome 5 assessed as growth inhibition by [3H]hypoxanthine incorporation assay; type: functional, organism-based
[18] = system: Plasmodium falciparum; assay: Antimicrobial activity against Plasmodium falciparum subclone 3C10 containing 2 copy number of pfmdr1-containing amplicon on chromosome 5 assessed as growth inhibition by [3H]hypoxanthine incorporation assay; type: functional, organism-based
[19] = system: Plasmodium falciparum; assay: Antimicrobial activity against drug pre-treated Plasmodium falciparum clone W2AL80 containing 3 copy number of pfmdr1-containing amplicon on chromosome 5 assessed as growth inhibition by [3H]hypoxanthine incorporation assay; type: functional, organism-based
[20] = system: Plasmodium falciparum; assay: Antimicrobial activity against Plasmodium falciparum subclone 3C20 containing 2 copy number of pfmdr1-containing amplicon on chromosome 5 assessed as growth inhibition by [3H]hypoxanthine incorporation assay; type: functional, organism-based
[21] = system: Plasmodium falciparum; assay: Ratio of IC50 for Plasmodium falciparum subclone 3A17 containing 2 copy number of pfmdr1-containing amplicon on chromosome 5 to IC50 for wild type Plasmodium falciparum W2; type: functional
[22] = system: Plasmodium falciparum; assay: Ratio of IC50 for Plasmodium falciparum subclone 3C20 containing 2 copy number of pfmdr1-containing amplicon on chromosome 5 to IC50 for wild type Plasmodium falciparum W2; type: functional
[23] = system: Plasmodium falciparum; assay: Ratio of IC50 for Plasmodium falciparum subclone 3A12 containing 2 copy number of pfmdr1-containing amplicon on chromosome 5 to IC50 for wild type Plasmodium falciparum W2; type: functional
[24] = system: Plasmodium falciparum; assay: Ratio of IC50 for Plasmodium falciparum subclone 3C18 containing 3 copy number of pfmdr1-containing amplicon on chromosome 5 to IC50 for wild type Plasmodium falciparum W2; type: functional
[25] = system: Plasmodium falciparum; assay: Ratio of IC90 for Plasmodium falciparum clone W2AL80 containing 3 copy number of pfmdr1-containing amplicon on chromosome 5 to IC90 for wild type Plasmodium falciparum W2; type: functional
[26] = system: Plasmodium falciparum; assay: Ratio of IC90 for Plasmodium falciparum subclone 3C20 containing 2 copy number of pfmdr1-containing amplicon on chromosome 5 to IC90 for wild type Plasmodium falciparum W2; type: functional
[27] = system: Plasmodium falciparum; assay: Ratio of IC50 for Plasmodium falciparum subclone 3A3 containing 1 copy number of pfmdr1-containing amplicon on chromosome 5 to IC50 for wild type Plasmodium falciparum W2; type: functional
[28] = system: Plasmodium falciparum; assay: Antimicrobial activity against Plasmodium falciparum subclone 3C18 containing 3 copy number of pfmdr1-containing amplicon on chromosome 5 assessed as growth inhibition by [3H]hypoxanthine incorporation assay; type: functional, organism-based
[29] = system: Plasmodium falciparum; assay: Antimicrobial activity against Plasmodium falciparum subclone 3A7 containing 4 copy number of pfmdr1-containing amplicon on chromosome 5 assessed as growth inhibition by [3H]hypoxanthine incorporation assay; type: functional, organism-based
[30] = system: Plasmodium falciparum; assay: Ratio of IC90 for Plasmodium falciparum subclone 3C18 containing 3 copy number of pfmdr1-containing amplicon on chromosome 5 to IC90 for wild type Plasmodium falciparum W2; type: functional
[31] = system: Plasmodium falciparum; assay: Ratio of IC50 for Plasmodium falciparum subclone 3A1 containing 1 copy number of pfmdr1-containing amplicon on chromosome 5 to IC50 for wild type Plasmodium falciparum W2; type: functional
[32] = system: Plasmodium falciparum; assay: Ratio of IC90 for Plasmodium falciparum subclone 3A3 containing 1 copy number of pfmdr1-containing amplicon on chromosome 5 to IC90 for wild type Plasmodium falciparum W2; type: functional
[33] = system: Plasmodium falciparum; assay: Ratio of IC50 for Plasmodium falciparum subclone 3A26 containing 3 copy number of pfmdr1-containing amplicon on chromosome 5 to IC50 for wild type Plasmodium falciparum W2; type: functional
[34] = system: Plasmodium falciparum; assay: Ratio of IC50 for Plasmodium falciparum subclone 3A7 containing 4 copy number of pfmdr1-containing amplicon on chromosome 5 to IC50 for wild type Plasmodium falciparum W2; type: functional
[35] = system: Plasmodium falciparum; assay: Ratio of IC90 for Plasmodium falciparum subclone 3C1 containing 3 copy number of pfmdr1-containing amplicon on chromosome 5 to IC90 for wild type Plasmodium falciparum W2; type: functional
[36] = system: Plasmodium falciparum; assay: Ratio of IC50 for Plasmodium falciparum subclone 3C1 containing 3 copy number of pfmdr1-containing amplicon on chromosome 5 to IC50 for wild type Plasmodium falciparum W2; type: functional
[37] = system: Plasmodium falciparum; assay: Antimicrobial activity against Plasmodium falciparum subclone 3A8 containing 3 copy number of pfmdr1-containing amplicon on chromosome 5 assessed as growth inhibition by [3H]hypoxanthine incorporation assay; type: functional, organism-based

## C[C@@H]1[C@H](OCc2ccc(C(=O)O)cc2)O[C@@H]2O[C@@]3(C)CC[C@@H]4[C@@H](C)CC[C@@H]1[C@]24OO3 [ARTELINIC ACID]
[1]
  Ratio: 20.9
[2]
  Ratio: 17
[3]
  Ratio IC50: 12.7
[4]
  Ratio: 20.7
[5]
  Ratio: 15.9
[6]
  IC50: 0.052 µg/mL (≈ 0.124 µM)
  IC90: 0.113 µg/mL (≈ 0.269 µM)
[7]
  Ratio IC50: 16.3
[8]
  Ratio: 22
[9]
  IC50: 0.0731 µg/mL (≈ 0.175 µM)
  IC90: 0.1 µg/mL (≈ 0.24 µM)
[10]
  Ratio IC50: 10.2
[11]
  Ratio: 9.8
[12]
  IC50: 0.0481 µg/mL (≈ 0.115 µM)
  IC90: 0.0867 µg/mL (≈ 0.207 µM)
[13]
  IC50: 0.0423 µg/mL (≈ 0.101 µM)
  IC90: 0.114 µg/mL (≈ 0.271 µM)
[14]
  IC50: 0.00386 µg/mL (≈ 0.00922 µM)
  IC90: 0.00544 µg/mL (≈ 0.013 µM)
[15]
  Ratio: 17.2
[16]
  IC50: 0.034 µg/mL (≈ 0.0813 µM)
  IC90: 0.0504 µg/mL (≈ 0.12 µM)
[17]
  IC50: 0.0294 µg/mL (≈ 0.0703 µM)
  IC90: 0.0531 µg/mL (≈ 0.127 µM)
[18]
  IC50: 0.0395 µg/mL (≈ 0.0945 µM)
  IC90: 0.0936 µg/mL (≈ 0.224 µM)
[19]
  IC50: 0.0488 µg/mL (≈ 0.117 µM)
  IC90: 0.123 µg/mL (≈ 0.295 µM)
[20]
  IC50: 0.0424 µg/mL (≈ 0.101 µM)
  IC90: 0.08 µg/mL (≈ 0.191 µM)
[21]
  Ratio IC50: 12.5
[22]
  Ratio IC50: 11
[23]
  Ratio IC50: 11
[24]
  Ratio IC50: 21.1
[25]
  Ratio: 22.7
[26]
  Ratio: 14.7
[27]
  Ratio IC50: 8.8
[28]
  IC50: 0.0814 µg/mL (≈ 0.194 µM)
  IC90: 0.111 µg/mL (≈ 0.265 µM)
[29]
  IC50: 0.0467 µg/mL (≈ 0.112 µM)
  IC90: 0.0924 µg/mL (≈ 0.221 µM)
[30]
  Ratio: 20.4
[31]
  Ratio IC50: 7.6
[32]
  Ratio: 9.3
[33]
  Ratio IC50: 13.5
[34]
  Ratio IC50: 12.1
[35]
  Ratio: 18.5
[36]
  Ratio IC50: 18.9
[37]
  IC50: 0.0629 µg/mL (≈ 0.15 µM)
  IC90: 0.12 µg/mL (≈ 0.286 µM)

From ChEMBL document CHEMBL1671696, “Deamplification of pfmdr1-containing amplicon on chromosome 5 in Plasmodium falciparum is associated with reduced resistance to artelinic acid in vitro” (Antimicrob Agents Chemother, 2010)
